# In publication PMC4160546, “Biotechnical paving of recombinant enterocin A as the candidate of anti-Listeria agent” (BMC Microbiology, 2014):
# Assays:
# [1] = tested on: L. ivanovii ATCC19119; test: MIC and MBC, microtiter broth dilution method; type: cell-based; settings: Listeria ivanovii, triplicate
# Description: Minimal inhibitory concentrations (MICs) and Minimum bactericidal concentrations (MBCs) assays were determined using the microtiter broth dilution method. Ampicillin was also tested with the same concentration gradient as a positive control. All tests were performed in triplicate.
# [2] = tested on: L. ivanovii ATCC19119; test: In-vitro killing curve (time-kill) assay; type: cell-based, Listeria ivanovii; settings: 2 × MIC, 10 h time-kill
# Description: To evaluate the antibacterial activity of rEntA against L. ivanovii ATCC19119, a time-kill assay was performed as described by the methods of Mao [32]. In addition, tubes with only bacterial inoculum were used as growth controls. All experiments were performed in triplicate.
# [3] = cited from earlier work
# Description: The native EntA was stable at 100°C and acidic pH conditions. […] These properties were potentially due to the higher cysteine content of the antimicrobial peptides, similar to the EntA containing four cysteine residues. In addition, the antimicrobial activity of some bacteriocins (nisin, sakacin P and curvacin A) was si ...
# [4] = tested on: digestive proteases trypsin and pepsin; settings: cited from earlier work
# Excerpt: Similarly, the purified rEntA, with 12.76% basic amino acids and 10.63% aromatic amino acids, was inactivated with trypsin and pepsin (Figure 4C). This high sensitivity to digestive proteases of rEntA contributes to its safety in foods and drugs, during and after oral administration.
compound,measurement,setting,value
CC1(C)S[C@@H]2[C@H](NC(=O)[C@H](N)c3ccccc3)C(=O)N2[C@H]1C(=O)O [ampicillin],MBC,[1],1.56 µg/mL
same,MIC,[1],0.39 µg/mL
same,growth of survivors after MVL,[2],resumed growth
"nisin: class I bacteriocin, widely used in commerce (ITSISLCTPGCKTGALMGCNMKTATCHCSIHVSK; not fully specified; Lantibiotic nisin-A; UniProt P13068 24-57, looked up)",effect of NaCl on antimicrobial activity,[3]; addition of NaCl from 0 to 1.17 M,significantly enhanced
"pediocin PA-1: class IIa bacteriocin (KYYGNGVTCGKHSCSVDWGKATTCIINNGAMAWATGGHQGNHKC; UniProt P29430 19-62, looked up)",bactericidal activity and overall structure at higher temperatures,[3],well maintained
same,sensitivity to trypsin and pepsin,[4],very sensitive
